# Test results reported in ChEMBL document CHEMBL1137979, “Nonpeptidic, noncovalent inhibitors of the cysteine protease cathepsin S” (J Med Chem, 2004).
# Assays:
# Cathepsin S = Cathepsin S (Homo sapiens, UniProt P25774); assay: Inhibitory concentration against human cysteine protease cathepsin S
# [1] = Inhibitory concentration against human Li processing; type: functional
# Chain of Cathepsin S (P25774 whole entry): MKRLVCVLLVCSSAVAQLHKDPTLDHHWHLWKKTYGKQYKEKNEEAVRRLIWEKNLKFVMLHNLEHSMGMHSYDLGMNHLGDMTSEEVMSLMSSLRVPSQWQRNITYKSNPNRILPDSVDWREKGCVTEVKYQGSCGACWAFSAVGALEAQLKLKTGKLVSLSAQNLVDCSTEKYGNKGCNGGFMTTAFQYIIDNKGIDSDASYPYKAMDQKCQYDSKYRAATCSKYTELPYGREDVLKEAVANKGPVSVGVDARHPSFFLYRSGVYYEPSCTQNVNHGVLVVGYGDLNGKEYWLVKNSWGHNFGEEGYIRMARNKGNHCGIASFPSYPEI
Compound,IC50 (Cathepsin S) [µM],IC50 [1] [µM]
N#Cc1ccccc1N1CCN(CC(Cn2nc(-c3ccc(I)cc3)c3c2CCN(C(N)=O)C3)OC(N)=O)CC1 (configuration not stated),0.02,0.88
CC(=O)N1CCc2c(c(-c3ccc(Cl)cc3)nn2CC(O)CN2CCN(C(c3ccc(F)cc3)c3ccc(F)cc3)CC2)C1 (configuration not stated),1,–
COc1ccccc1N1CCN(CCCCn2nc(-c3ccc(Cl)cc3)c3c2CCN(C(C)=O)C3)CC1,9.5,–
CC(=O)N1CCc2c(c(-c3ccc(Cl)cc3)nn2CC(O)CN2CCN(c3ccccc3Cl)CC2)C1 (configuration not stated),1,–
COc1ccccc1N1CCN(CC(O)Cn2nc(-c3ccc(I)cc3)c3c2CCN(C(C)=O)C3)CC1 (configuration not stated),0.6,–
Cc1ccccc1N1CCN(CC(O)Cn2nc(-c3ccc(I)cc3)c3c2CCN(C(N)=O)C3)CC1 (configuration not stated),14,–
